Drawing on patent US9163011B2, “Oxazine derivatives and their use in the treatment of disease” (NOVARTIS AG, priority 2011, dated 2015), this text covers IC50 for ten compounds.

A value given as a limit tells only on which side of the number the result lay.

By IC50 is commonly meant the point on the concentration scale where inhibition reaches its midpoint.

Test [1] in a line: Test 4: Inhibition of Cellular Release of Amyloid Peptide 1-40. To be noted: Cricetulus griseus; CHO cells with human APP, 24 hours with compound; read-out: Test 4 Amyloid-β1-40 release IC50. In kind it is cell-based, Chinese hamster. On the procedure:
The cells are plated at a density of 8000 cells/well into 96-well microtiter plates and cultivated for 24 hours in DMEM cell culture medium containing 10% FCS. The test compound is added to the cells at various concentrations, and the cells are cultivated for 24 hours in the presence of the test compound. […] The potency of the compound is calculated from the percentage of inhibition of amyloid peptide release as a function of the test compound concentration.

The target in test [2] is Human BACE-2 (Homo sapiens (Human), UniProt Q9Y5Z0). Briefly: Test 2: Inhibition of Human BACE-2. The class given is biochemical. The settings on record: recombinant BACE-2, pH 4.5, 1 hour preincubation. Here is the method: Test 2: Inhibition of Human BACE-2
(§1) Recombinant BACE-2 (extracellular domain, expressed in baculovirus and purified using standard methods) at 0.1 to 1 nM concentrations is incubated with the test compound at various concentrations for 1 hour at room temperature in 100 mM acetate buffer, pH 4.5, containing 0.1% CHAPS. Activity was measured using a final concentration of 3 μM of the fluorescence-quenched substrate Q-C(HSO3)-Ile-Asp-Leu-Ala-Val-Leu-Asp-HN—CH2—CH2-Mca, where Q=2-nitro-5-amino benzoic acid and Mca=7-methoxy-4-coumarinyl acetic acid. Catalytic turnover was monitored in a Spectramax Gemini fluorescence plate reader (Molecular Devices) in black 96-well microplates using excitation/emission wavelength of 325 nm and 400 nm, respectively. Fluorescence increase was followed for 15 min, in 1 minute's intervals. The fluorescence/time slopes were calculated from duplicate wells and from wells without inhibitor and the IC50 values were calculated using a logistic 4-parameter model.

In test [3] the target is Human BACE-1 (Homo sapiens (Human), UniProt P56817). Description: Test 1: Inhibition of Human BACE-1. To be noted: recombinant BACE-1, pH 4.5, 1 hour preincubation. The class given is biochemical. On the procedure: Test 1: Inhibition of Human BACE-1
as §1, with “BACE-1” for “BACE-2”

Chain of Human BACE-1 (P56817 46-457): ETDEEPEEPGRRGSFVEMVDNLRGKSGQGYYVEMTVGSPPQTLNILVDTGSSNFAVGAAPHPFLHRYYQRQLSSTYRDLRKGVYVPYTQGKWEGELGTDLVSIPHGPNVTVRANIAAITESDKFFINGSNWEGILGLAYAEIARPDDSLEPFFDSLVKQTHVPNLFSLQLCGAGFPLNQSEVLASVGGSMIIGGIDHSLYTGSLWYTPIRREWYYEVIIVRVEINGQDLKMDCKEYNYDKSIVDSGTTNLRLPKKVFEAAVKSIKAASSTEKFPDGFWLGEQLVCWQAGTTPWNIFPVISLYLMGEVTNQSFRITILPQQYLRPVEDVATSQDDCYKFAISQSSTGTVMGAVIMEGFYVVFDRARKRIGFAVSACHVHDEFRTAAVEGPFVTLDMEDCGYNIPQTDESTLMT
Chain of Human BACE-2 (Q9Y5Z0 63-473): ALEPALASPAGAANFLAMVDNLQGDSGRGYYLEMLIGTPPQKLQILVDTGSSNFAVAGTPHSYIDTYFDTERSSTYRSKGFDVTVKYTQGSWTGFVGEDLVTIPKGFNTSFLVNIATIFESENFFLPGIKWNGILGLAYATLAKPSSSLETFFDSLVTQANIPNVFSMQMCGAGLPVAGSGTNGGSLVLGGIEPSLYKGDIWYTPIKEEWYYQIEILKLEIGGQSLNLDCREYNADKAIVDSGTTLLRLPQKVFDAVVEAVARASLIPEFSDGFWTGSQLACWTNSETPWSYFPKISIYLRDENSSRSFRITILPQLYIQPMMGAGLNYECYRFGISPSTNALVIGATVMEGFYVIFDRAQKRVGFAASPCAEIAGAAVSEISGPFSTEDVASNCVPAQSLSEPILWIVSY

As for `Cc1cc(C#N)cnc1C(=O)Nc1ccc(F)c([C@@]2(C)N=C(N)OCC2(F)F)n1` [Example 1, 5-Cyano-3-methyl-pyridine-2-carboxylic acid [6-((R)-2-amino-5,5-difluoro-4-methyl-5,6-dihydro-4H-[1,3]oxazin-4-yl)-5-fluoro-pyridin-2-yl]-amide], the 50% inhibitory concentration (IC50) in test [1] is 7 nM; in test [2], 66 nM; in test [3], 12 nM.
For the compound `COCC[C@@]1(c2nc(NC(=O)c3ncc(C#N)cc3C)ccc2F)N=C(N)OCC1(F)F` [Example 5], the half-maximal inhibitory concentration (IC50) in test [1] was over 10000 nM.
For the compound `COCC[C@]1(c2nc(NC(=O)c3ncc(C(F)(F)F)cc3Cl)ccc2F)N=C(N)OCC1(F)F` [Example 6, 3-Chloro-5-trifluoromethyl-pyridine-2-carboxylic acid {6-[(R)-2-amino-5,5-difluoro-4-(2-methoxy-ethyl)-5,6-dihydro-4H-[1,3]oxazin-4-yl]-5-fluoro-pyridin-2-yl}-amide], the IC50 in test [1] was determined as 380 nM; in test [2], 6600 nM; in test [3], 650 nM.
For `C[C@]1(c2nc(NC(=O)c3ncc(C(F)(F)F)nc3N)ccc2F)N=C(N)OCC1(F)F` [Example 8, 3-Amino-5-trifluoromethyl-pyrazine-2-carboxylic acid [6-((R)-2-amino-5,5-difluoro-4-methyl-5,6-dihydro-4H-[1,3]oxazin-4-yl)-5-fluoro-pyridin-2-yl]-amide] the same measures were 140 nM, 1400 nM and 160 nM.
Taken in the same sequence, the figures for `C[C@]1(c2nc(NC(=O)c3ncc(Cl)cc3Cl)ccc2F)N=C(N)OCC1(F)F` [Example 9, 3,5-Dichloro-pyridine-2-carboxylic acid [6-((R)-2-amino-5,5-difluoro-4-methyl-5,6-dihydro-4H-[1,3]oxazin-4-yl)-5-fluoro-pyridin-2-yl]-amide] were 12 nM, 4 nM and 18 nM.
For `C[C@]1(c2nc(NC(=O)c3ncc(OCC(F)(F)F)nc3N)ccc2F)N=C(N)OCC1(F)F` [Example 10, 3-Amino-5-(2,2,2-trifluoro-ethoxy)pyrazine-2-carboxylic acid [6-((R)-2-amino-5,5-difluoro-4-methyl-5,6-dihydro-4H-[1,3]oxazin-4-yl)-5-fluoro-pyridin-2-yl]-amide] the same measures were 600 nM, 3800 nM and 590 nM.
Turning to `COc1cnc(C(=O)Nc2ccc(F)c([C@@]3(C)N=C(N)OCC3(F)F)n2)c(C)c1` [Example 13, 5-Methoxy-3-methyl-pyridine-2-carboxylic acid [6-((R)-2-amino-5,5-difluoro-4-methyl-5,6-dihydro-4H-[1,3]oxazin-4-yl)-5-fluoro-pyridin-2-yl]-amide], in test [1], the IC50 is 82 nM.
`COCC#Cc1cnc(C(=O)Nc2ccc(F)c([C@@]3(C)N=C(N)OCC3(F)F)n2)c(N)c1` [Example 14, 3-Amino-5-(3-methoxy-prop-1-ynyl)-pyridine-2-carboxylic acid [6-((R)-2-amino-5,5-difluoro-4-methyl-5,6-dihydro-4H-[1,3]oxazin-4-yl)-5-fluoro-pyridin-2-yl]-amide]: in test [1], the IC50 came to 540 nM.
For `COCCOc1cnc(C(=O)Nc2ccc(F)c([C@@]3(C)N=C(N)OCC3(F)F)n2)c(N)n1` [Example 16, 3-Amino-5-(2-methoxy-ethoxy)-pyrazine-2-carboxylic acid [6-((R)-2-amino-5,5-difluoro-4-methyl-5,6-dihydro-4H-[1,3]oxazin-4-yl)-5-fluoro-pyridin-2-yl]amide], the IC50 in test [2] was 8900 nM; in test [3] it was 120 nM.
Take `CC(F)(F)c1cnc(C(=O)Nc2ccc(F)c([C@@]3(C)N=C(N)OCC3(F)F)n2)c(Cl)c1` [Example 36, 3-Chloro-5-(1,1-difluoro-ethyl)-pyridine-2-carboxylic acid [6-((R)-2-amino-5,5-difluoro-4-methyl-5,6-dihydro-4H-[1,3]oxazin-4-yl)-5-fluoro-pyridin-2-yl]-amide]: the half-maximal inhibitory concentration (IC50) in test [1] is 58 nM.
